Key:
OCI-LY10^R58Q = assay: Growth inhibition assay (CellTiter Glo), OCI-Ly10 cells expressing BCL10 R58Q; assay type: cell-based; conditions: Homo sapiens, 96 h, read-out: IC50, growth inhibition, MALT1 inhibitors
Procedure: (§1) DLBCL cell lines were cultured in exponential condition and the cell growth was determined by CellTiter Glo (Promega). 3000-5000 cells were seeded and cultured in each well of 384 well plate for 96 h and treated with compounds every 48 h. Luminescence was read at the endpoint with the Synergy NEO microplate reader (BioTek). The value of compound treated cells was normalized to their vehicle treated controls and then used to calculate IC50 in GraphPad Prism (RRID:SCR_002798).
(§2) Given the distinct functional profiles, CARD11 dependencies, and MALT1 activation effects of the BCL10 CARD and truncation mutants, the inventors designed experiments to evaluate whether, and to what extent, these mutant BCL10 proteins might confer BTK inhibitor resistance. Isogenic ABC-DLBCL cells expressing BCL10WT, BCL10^R58Q and BCL10^E140X proteins were treated with escalating doses of three chemically distinct covalent BTK inhibitors: ibrutinib, acalabrutinib, or zanubrutinib. The cellular proliferation rates of the treated cells were measured using an ATP fluorescence assay after 96 hours of drug exposure.
(§3) Isogenic BCL10^WT, BCL10^R58Q and BCL10^E140X ABC-DLBCLs were exposed to increasing concentrations of each of these compounds for 96 hours.

HBL1^WT = assay: Growth inhibition assay (CellTiter Glo), HBL1 cells expressing BCL10 WT; assay type: cell-based; conditions: Homo sapiens, 96 h, read-out: IC50, growth inhibition, MALT1 inhibitors
Procedure: as §1, §2, §3

[1] = test system: IL-10 secretion by OCI-Ly3 ABC-DLBCL cells; assay: IL-10 secretion assay using OCI-Ly3 cells (MSD); assay type: cell-based; conditions: Homo sapiens, 24 h, read-out: IC50, IL10 secretion
Procedure: (§4) FIG. 21A. Chemical structure of JNJ-67690246. FIG. 21B. IC50 values for JNJ-67690246 in biochemical enzymatic and cellular cytokine secretion assays. MALT1 proteolytic IC50: purified recombinant MALT1 was preincubated for 50 min at RT with JNJ-67690246, substrate Ac-LRSR-AMC was then incubated for 4 h. MALT1 proteolytic activity was determined by measuring the increase of AMC fluorescence. […] FIG. 21C. Table for IC50 values of three different MALT1 inhibitors measured in HBL1 and OCI-Ly10 cells expressing WT and mutant BCL10. D-F. MALT1 activity measured in OCI-Ly10 GloSensor reporter cells treated with MALT1 inhibitors. OCI-Ly10 MALT1 GloSensor cells were stably expressing wildtype and mutant BCL10, then treated with MALT1 inhibitors of different range (10-0.3 uM). FIG. 21G-I. NF-κB activity measured in NF-κB-RE-luciferase reporter cell lines treated with MALT1 inhibitors. HBL1 NF-κB reporter cells lines were stably expressing wildtype and mutant BCL10, and then treated with MALT1 inhibitors of different range (10-0.3 uM). NF-xB activity was performed 24 h after treatment. Error bars indicate SEM with 4 biological replicates. p<0.05; “p<0.01; “<0.001; ****p<0.0001; ns, not significant.
(§5) Secretion of the IL-6 and IL-10 cytokines by OCI-Ly3 ABC-DLBCL cells was measured using a Mesoscale assay (MSD). MALT1 inhibition results in a decrease of IL-6/10 secretion. […] Plates were read on a SECTOR imager.

OCI-LY10^WT = assay: Growth inhibition assay (CellTiter Glo), OCI-Ly10 cells expressing BCL10 WT; assay type: cell-based; conditions: Homo sapiens, 96 h, read-out: IC50, growth inhibition, MALT1 inhibitors
Procedure: as §1, §2, §3

HBL1^E140X = assay: Growth inhibition assay (CellTiter Glo), HBL1 cells expressing BCL10 E140X; assay type: cell-based; conditions: Homo sapiens, 96 h, read-out: IC50, growth inhibition, MALT1 inhibitors
Procedure: as §1, §2, §3

[2] = target: T1, full-length MALT1 protein (Strep-MALT1(1-824)-His) (Homo sapiens, UniProt Q9UDY8); assay: Biochemical evaluation of MALT1 protease activity (Ac-LRSR-AMC cleavage); conditions: preincubated 50 min at RT, substrate Ac-LRSR-AMC 4 h; read-out: IC50, MALT1 enzyme
T1 construct: full-length MALT1 protein (Strep-MALT1(1-824)-His); Strep (N); His (C); made in house; host or cells: baculovirus-infected insect cells
T1 sequence (Q9UDY8 whole entry): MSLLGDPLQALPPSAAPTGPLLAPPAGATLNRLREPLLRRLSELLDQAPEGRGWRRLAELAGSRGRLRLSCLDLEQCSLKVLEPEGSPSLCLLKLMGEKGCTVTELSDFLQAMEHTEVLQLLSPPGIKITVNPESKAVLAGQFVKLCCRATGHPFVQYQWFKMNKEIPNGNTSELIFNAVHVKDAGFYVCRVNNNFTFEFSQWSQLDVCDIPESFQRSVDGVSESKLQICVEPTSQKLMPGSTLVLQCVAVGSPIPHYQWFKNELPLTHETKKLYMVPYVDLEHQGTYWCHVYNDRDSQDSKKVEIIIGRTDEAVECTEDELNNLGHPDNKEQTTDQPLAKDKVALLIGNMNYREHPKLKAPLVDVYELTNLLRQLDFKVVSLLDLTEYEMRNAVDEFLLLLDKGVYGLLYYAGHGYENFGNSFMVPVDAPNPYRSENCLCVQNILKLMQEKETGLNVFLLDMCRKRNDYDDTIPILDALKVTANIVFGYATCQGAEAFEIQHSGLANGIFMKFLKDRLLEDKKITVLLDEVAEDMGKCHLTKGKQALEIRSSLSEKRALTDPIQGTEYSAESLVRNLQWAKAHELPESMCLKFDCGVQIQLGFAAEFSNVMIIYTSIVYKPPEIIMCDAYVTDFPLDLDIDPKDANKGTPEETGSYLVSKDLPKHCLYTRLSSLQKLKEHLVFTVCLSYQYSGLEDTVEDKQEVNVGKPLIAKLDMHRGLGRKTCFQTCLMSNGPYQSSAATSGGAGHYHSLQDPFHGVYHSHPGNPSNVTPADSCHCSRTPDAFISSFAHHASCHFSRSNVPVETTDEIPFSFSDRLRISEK
Procedure: FIG. 21A. Chemical structure of JNJ-67690246. FIG. 21B. IC50 values for JNJ-67690246 in biochemical enzymatic and cellular cytokine secretion assays. MALT1 proteolytic IC50: purified recombinant MALT1 was preincubated for 50 min at RT with JNJ-67690246, substrate Ac-LRSR-AMC was then incubated for 4 h. MALT1 proteolytic activity was determined by measuring the increase of AMC fluorescence. […] FIG. 21C. Table for IC50 values of three different MALT1 inhibitors measured in HBL1 and OCI-Ly10 cells expressing WT and mutant BCL10. D-F. MALT1 activity measured in OCI-Ly10 GloSensor reporter cells treated with MALT1 inhibitors. […] FIG. 21G-I. NF-κB activity measured in NF-κB-RE-luciferase reporter cell lines treated with MALT1 inhibitors. […]
MALT1 protease activity was assessed in vitro using full-length MALT1 protein (Strep-MALT1(1-824)-His) purified from baculovirus-infected insect cells. […] Cleavage of AMC from the arginine residue results in an increase in coumarin fluorescence measured at 460 nm (excitation 355 nm). […] Substrate was added and the reaction was then incubated for 4 h at RT, after which fluorescence was measured.
MALT1 protease activity was assessed in vitro using full-length MALT1 protein (Strep-MALT1 (1-824)-His) purified from baculovirus-infected insect cells. […] Cleavage of AMC from the arginine residue results in an increase in coumarin fluorescence measured at 460 nm (excitation 355 nm). […]

OCI-LY10^E140X = assay: Growth inhibition assay (CellTiter Glo), OCI-Ly10 cells expressing BCL10 E140X; assay type: cell-based; conditions: Homo sapiens, 96 h, read-out: IC50, growth inhibition, MALT1 inhibitors
Procedure: as §1, §2, §3

[3] = test system: IL-6 secretion by OCI-Ly3 ABC-DLBCL cells; assay: IL-6 secretion assay using OCI-Ly3 cells (MSD); assay type: cell-based; conditions: Homo sapiens, 24 h, read-out: IC50, IL6 secretion
Procedure: as §4, §5

IC50 (OCI-LY10^R58Q): 0.78 ± 0.2 µM | IC50 [1]: 0.06 µM | IC50 (OCI-LY10^WT): 0.32 ± 0.07 µM | IC50 [2]: 0.015 µM | IC50 (OCI-LY10^E140X): 0.27 ± 0.02 µM | IC50 [3]: 0.06 µM
SMILES: Cc1nc(-n2nccn2)c(Cl)cc1NC(=O)c1cnn(-c2cccc3c(=O)[nH]ccc23)c1C(F)(F)F [JNJ-67690246]
IC50 (HBL1^WT): 1.58 ± 0.5 µM | IC50 (HBL1^E140X): 0.15 ± 0.02 µM
